Measurements published in patent US4694069A, “Kibdelosporangium aridum SK&F-AAD-609” (SmithKline Beckman Corporation, priority 1985, dated 1987).
Converted amounts (≈) assume the structure as drawn. Like-named read-outs stand apart in the source and are kept apart here.

Columns and labels:
[1] = test system: rumen fermentation (strained rumen fluid); assay: Rumen in vitro model; set-up: species or system steer; conditions: for AAN (alpha amino nitrogen) / AMO (ammonia nitrogen) / LYS (lysine): 6 h; for % PR (percent propionate) / ACE (acetate) / BUT (butyrate) / ETOH (ethanol) / IBU (isobutyrate) / IVA (isovalerate) / PRO (propionate) / TOTAL (total volatile fatty acids) / VAL: 24 h
Procedure: The AAD-609 antibiotics were characterized in a rumen in vitro model to assess their potential as feed additives for ruminants. […] Specifically, strained rumen fluid (10 ml) obtained from a fistulated steer receiving a roughage ration, was mixed with 10 ml of nutrient broth (20 mg casein hydrolysate, 100 mg maltose, 15 mg urea, 400 mg solka floc (cellulose), 100 mg cellobiose and 100 mg starch) and with a selected growth promotant and incubated at 39° C., with oscillation, for 24 hours. […] Measurement of AMO, LYS and AAN was done with a sample taken from the incubation flask after 6 hours.

[2] = test system: S. aureus 2620 (methicillin resistant strain); assay: MIC; type: cell-based; conditions: Staphylococcus aureus; Table B; methicillin resistant strain; read-out: MIC
Description: (§1) In vitro minimum inhibitory concentrations (MIC) of the AAD-609 complex and of Factors A, B, CC2 and D, using standard microtiter assay procedures, against a number of microorganisms are reported in Table A, which follows.

S. faecalis 34358 = assay: In vitro MIC, standard microtiter assay; type: cell-based, Streptococcus faecalis
Description: as §1

[3] = pKa by potentiometric titration; conditions: 30:70 acetonitrile:water, apparent values, AAD-216A averaged previous results
[4] = test system: mixed intestinal microflora (cecum fluid); assay: Swine in vitro model; conditions: one level, up to 166.67 ppm; 4-5 h
Procedure: A swine in vitro model was used to characterize AAD-609 antibiotics as potential feed additives in swine and poultry. Mixed intestinal microflora were obtained from ileally-cannulated pigs. Virginiamycin, carbadox, AAD-216 and its components, and AAD-609 Complex (containing less than 5% AAD-216 antibiotics) were tested at one level. […] Glucose (GLU) was spared from microbial degradation. Volatile fatty acids (TOTAL) were the major end-product of microbial metabolism while lactic acid production were reduced. […] Since AAD-609 and AAD-216 give similar in vitro results, it is expected that AAD-609 has similar growth-promoting activity in monogastric animals. Also, the in vitro activity of AAD-609 is similar to the activity previously observed with bacitracin in this model.
The swine in vitro model was carried out by incubating 1.5 ml of cecum fluid, from a swine fed normal rations, mixed with 1.5 ml of a nutrient broth (3 mg casein hydrolysate, 30 mg maltose, 1.25 mg urea, 0.5 mg lysine, and 30 mg cellobiose) and with up to 166.67 parts per million of a selected growth promotant at 39° C., with oscillation, for about 4-5 hours. Results, percentage of control, are reported in the following table in which all abbreviations are as above except that LLA means L-lactate and ETOH means ethanol.

Pharmacokinetics in mice = conditions: mice
S. aureus 674 = assay: In vitro MIC, standard microtiter assay; type: cell-based, Staphylococcus aureus; conditions: Staphylococcus aureus, 674; Table A; read-out: MIC
Description: as §1

[5] = test system: S. aureus 910 (methicillin resistant strain); assay: In vitro MIC, standard microtiter assay; type: cell-based, Staphylococcus aureus; conditions: Staphylococcus aureus; Table A; methicillin resistant strain; read-out: MIC
Description: as §1

S. aureus 209P = assay: In vitro MIC, standard microtiter assay; type: cell-based, Staphylococcus aureus; conditions: Staphylococcus aureus, 209P; Table A; read-out: MIC
Description: as §1

S. aureus 675 = assay: In vitro MIC, standard microtiter assay; type: cell-based, Staphylococcus aureus; conditions: Staphylococcus aureus, 675; Table A; read-out: MIC
Description: as §1

Escherichia coli 12140 = assay: In vitro MIC, standard microtiter assay; type: cell-based; conditions: Escherichia coli, 12140; Table A; read-out: MIC
Description: as §1

[6] = test system: Salmonella gallinarum BC-595; assay: In vitro MIC, standard microtiter assay; type: cell-based; conditions: Salmonella enterica, GALLINARUM; Table A; read-out: MIC
Description: as §1

S. epidermidis 2265 = assay: In vitro MIC, standard microtiter assay; type: cell-based; conditions: Staphylococcus epidermidis, 2265; Table A; read-out: MIC
Description: as §1

[7] = test system: Staphylococcus aureus HH127; assay: In vitro MIC, standard microtiter assay; type: cell-based
Description: as §1

[8] = test system: S. epidermidis 651 (methicillin resistant strain); assay: In vitro MIC, standard microtiter assay; type: cell-based; conditions: methicillin resistant strain
Description: as §1

[9] = test system: Streptococcus faecalis 657; assay: In vitro MIC, standard microtiter assay; type: cell-based; conditions: Enterococcus faecalis, 657; Table A; read-out: MIC
Description: as §1

S. epidermidis 2479 = assay: In vitro MIC, standard microtiter assay; type: cell-based
Description: as §1

Clostridium difficile = assay: In vitro MIC, standard microtiter assay; type: cell-based; conditions: Clostridioides difficile; Table A; read-out: MIC
Description: as §1

S. epidermidis 2683 = assay: In vitro MIC, standard microtiter assay; type: cell-based; conditions: Staphylococcus epidermidis, 2683; Table A; read-out: MIC
Description: as §1

## CCCCCCCCCC(=O)NC1C(Oc2c3cc4cc2Oc2c(Cl)cc(cc2Cl)C(O)C2NC(=O)C(NC(=O)C4NC(=O)C4NC(=O)C(NC(=O)C(NC)c5ccc(O)c(c5)Oc5cc(O)c(Cl)c4c5)C(O)c4ccc(c(Cl)c4)O3)c3ccc(O)c(c3)-c3c(OC4OC(CO)C(O)C(O)C4O)cc(O)cc3C(C(=O)O)NC2=O)OC(C(=O)O)C(O)C1O (centres unmarked) [AAD-216 A]
[1]; 0.50 ppm
  AAN (alpha amino nitrogen): 76 % of control
  AMO (ammonia nitrogen): 102 % of control
  LYS (lysine): 108 % of control
  % PR (percent propionate): 106 % of control
  ACE (acetate): 96 % of control
  BUT (butyrate): 100 % of control
  ETOH (ethanol): 0 % of control
  IBU (isobutyrate): 125 % of control
  IVA (isovalerate): 124 % of control
  PRO (propionate): 107 % of control
  TOTAL (total volatile fatty acids): 101 % of control
[1]; 5.00 ppm
  AAN (alpha amino nitrogen): 153 % of control
  AMO (ammonia nitrogen): 101 % of control
  LYS (lysine): 144 % of control
  % PR (percent propionate): 148 % of control
  ACE (acetate): 105 % of control
  BUT (butyrate): 81 % of control
  ETOH (ethanol): 0 % of control
  IBU (isobutyrate): 75 % of control
  IVA (isovalerate): 48 % of control
  PRO (propionate): 153 % of control
  TOTAL (total volatile fatty acids): 103 % of control
  VAL: 56 % of control
[1]; 50.00 ppm
  AAN (alpha amino nitrogen): 195 % of control
  AMO (ammonia nitrogen): 109 % of control
  LYS (lysine): 168 % of control
  % PR (percent propionate): 140 % of control
  ACE (acetate): 93 % of control
  BUT (butyrate): 87 % of control
  ETOH (ethanol): 0 % of control
  IBU (isobutyrate): 112 % of control
  IVA (isovalerate): 98 % of control
  PRO (propionate): 138 % of control
  TOTAL (total volatile fatty acids): 98 % of control
  VAL: 26 % of control
[2]
  MIC: 4 µg/mL (≈ 2.24 µM)
S. faecalis 34358; Enterococcus faecalis, 34358, Table A, read-out: MIC
  MIC: 0.4 µg/mL (≈ 0.224 µM)
S. faecalis 34358; Table B
  MIC: 0.4 µg/mL (≈ 0.224 µM)
[3]
  pKa (A) carboxyl on aglycone: 3.0
  pKa (B) carboxyl on side chain: 4.9
  pKa (C) amino group on aglycone: 7.4
[3]; first phenolic OH
  pKa (D) phenolic OH: 8.4
[3]; second phenolic OH
  pKa (D) phenolic OH: 10.0
[3]; third phenolic OH
  pKa (D) phenolic OH: 10.3
[4]
  % PR (percent propionate): 117 % of control
  ACE (acetate): 200 % of control
  BUT (butyrate): 147 % of control
  ETOH (ethanol): 167 % of control
  GLU (glucose): 180 % of control
  IBU (isobutyrate): 0 % of control
  IVA (isovalerate): 0 % of control
  LLA (L-lactate): 2 % of control
  LYS (lysine): 35 % of control
  PRO (propionate): 276 % of control
  TOTAL (total volatile fatty acids): 236 % of control
  VAL: 0 % of control
Pharmacokinetics in mice
  Elimination half-life: 226 min
  Maximum serum concentration: 121 µg/mL
S. aureus 674
  MIC: 3.1 µg/mL (≈ 1.73 µM)
[5]
  MIC: 3.1 µg/mL (≈ 1.73 µM)
S. aureus 209P
  MIC: 0.8 µg/mL (≈ 0.447 µM)
S. aureus 675
  MIC: 12.5 µg/mL (≈ 6.99 µM)
Escherichia coli 12140
  MIC: > 100 µg/mL
[6]
  MIC: > 100 µg/mL
S. epidermidis 2265
  MIC: 50 µg/mL (≈ 27.9 µM)
[7]; Staphylococcus aureus, HH127, Table A, read-out: MIC
  MIC: 3.1 µg/mL (≈ 1.73 µM)
[7]; Table B
  MIC: 3.1 µg/mL (≈ 1.73 µM)
[8]; Staphylococcus epidermidis, Table A, read-out: MIC
  MIC: 100 µg/mL (≈ 55.9 µM)
[8]; Table B
  MIC: 100 µg/mL (≈ 55.9 µM)
[9]
  MIC: 0.8 µg/mL (≈ 0.447 µM)
S. epidermidis 2479; Staphylococcus epidermidis, 2479, Table A, read-out: MIC
  MIC: 25 µg/mL (≈ 14 µM)
S. epidermidis 2479; Table B
  MIC: 25 µg/mL (≈ 14 µM)
Clostridium difficile
  MIC: 0.25 µg/mL (≈ 0.14 µM)
S. epidermidis 2683
  MIC: 50 µg/mL (≈ 27.9 µM)
